Target: human Nav1.7 (Homo sapiens (Human), UniProt Q15858)
Assay: FLIPR sodium dye assay (CoroNa Green AM Na+ dye, primary fluorescence assay)
Assay type: cell-based
Conditions: recombinant Nav1.7/HEK293 cells
Experimental: In vitro assays were performed in a recombinant cell line expressing cDNA encoding the alpha subunit (Nav1.7, SCN9a, PN1, NE) of human Nav1.7 (Accession No. NM_002977). The cell line was provided by investigators at Yale University (Cummins et al, J. Neurosci. 18(23): 9607-9619 (1998)). For dominant selection of the Nav1.7-expressing clones, the expression plasmid co-expressed the neomycin resistance gene. The cell line was constructed in the human embryonic kidney cell line, HEK293, under the influence of the CMV […] promoter, and stable clones were selected using limiting dilution cloning and antibiotic selection using the neomycin analogue, G418. Recombinant beta and gamma subunits were not introduced into this cell line. Additional cell lines expressing recombinant Nav1.7 cloned from other species can also be used, alone or in combination with various beta subunits, gamma subunits or chaperones.
Unless otherwise noted, cell culture reagents were purchased from Mediatech of Herndon, Va. The recombinant Nav1.7/HEK293 cells were routinely cultured in growth medium consisting of Dulbecco's […] essential medium containing 10% fetal bovine serum (FBS, Hyclone, Thermo Fisher Scientific, Logan, Utah), 100 U/mL penicillin, 100 μg/mL streptomycin, 2-4 mM L-glutamine, and […] G418. For natural, non-recombinant cell lines, the selective antibiotic was omitted, and additional media formulations can be applied as needed.
The final buffer consisted of 20 mM Hepes, pH 7.3, 1.261 mM CaCl2, 0.493 mM MgCl2, 0.407 mM Mg(SO)4, 5.33 mM KCl, 0.441 mM KH2PO4, 137 mM NaCl, 0.336 mM Na2HPO4 and […] D-glucose (Hanks et al., Proc. Soc. Exp. Biol. Med. 71:196 (1949)), and the simple formulation was typically the basic buffer throughout the assay (i.e., all wash and addition steps).
The fluorescence indicator used in the primary fluorescence assay was the cell permeant version of CoroNa™ Green (Invitrogen, Molecular Probes, Eugene, Oreg.), a dye that emits light in the fluorescence range (Harootunian et al., J. Biol. Chem. 264(32):19458-19467 (1989)). The intensity of this emission, but not the wavelength range, is increased when the dye is exposed to Na^+ ions, which it can bind with partial selectivity. Cells expressing Nav1.7 or other sodium channels were loaded with the CoroNa™ Green dye immediately in advance of the fluorescence assay, and then, after agonist stimulation, the mobilization of Na^+ ions was detected as the Na^+ ions flowed from the extracellular fluid into the cytoplasm through the activated sodium channel pores. The dye was stored in the dark as a lyophilized powder, and then an aliquot was dissolved immediately before the cell loading procedure, according to the instructions of the manufacturer, to a stock concentration of 10 mM in DMSO. It was then diluted in the assay buffer to a 4× concentrated working solution, so that the final concentration of dye in the cell loading buffer was 5 μM.
In the fluorescence assays, two agonists were used in combination, namely 1) veratridine; and 2) the venom from the yellow scorpion, Leiurus quinquestriatus hebraeus. Veratridine is an alkaloid small molecule that facilitates the capture of channel openings by inhibiting inactivation, and the scorpion venom is a natural preparation that includes peptide toxins selective for different subsets of voltage-gated sodium channels. These scorpion toxins inhibit the fast inactivation of their cognate target channels. Stock solutions of the agonists were prepared to 40 mM in DMSO (veratridine) and 1 mg/mL in dH2O (scorpion venom), and then diluted to make a 4× or 2× stock (depending on the particular assay) in assay buffer, the final concentration being 100 μM (veratridine) and 10 μg/mL (scorpion venom). Both of the agonists were purchased from Sigma Aldrich, St. Louis, Mo.
Test compounds were dissolved in DMSO to yield 10 mM stock solutions. […]

Sequence of human Nav1.7 (Q15858 other isoform, or with tags, fused parts or gaps): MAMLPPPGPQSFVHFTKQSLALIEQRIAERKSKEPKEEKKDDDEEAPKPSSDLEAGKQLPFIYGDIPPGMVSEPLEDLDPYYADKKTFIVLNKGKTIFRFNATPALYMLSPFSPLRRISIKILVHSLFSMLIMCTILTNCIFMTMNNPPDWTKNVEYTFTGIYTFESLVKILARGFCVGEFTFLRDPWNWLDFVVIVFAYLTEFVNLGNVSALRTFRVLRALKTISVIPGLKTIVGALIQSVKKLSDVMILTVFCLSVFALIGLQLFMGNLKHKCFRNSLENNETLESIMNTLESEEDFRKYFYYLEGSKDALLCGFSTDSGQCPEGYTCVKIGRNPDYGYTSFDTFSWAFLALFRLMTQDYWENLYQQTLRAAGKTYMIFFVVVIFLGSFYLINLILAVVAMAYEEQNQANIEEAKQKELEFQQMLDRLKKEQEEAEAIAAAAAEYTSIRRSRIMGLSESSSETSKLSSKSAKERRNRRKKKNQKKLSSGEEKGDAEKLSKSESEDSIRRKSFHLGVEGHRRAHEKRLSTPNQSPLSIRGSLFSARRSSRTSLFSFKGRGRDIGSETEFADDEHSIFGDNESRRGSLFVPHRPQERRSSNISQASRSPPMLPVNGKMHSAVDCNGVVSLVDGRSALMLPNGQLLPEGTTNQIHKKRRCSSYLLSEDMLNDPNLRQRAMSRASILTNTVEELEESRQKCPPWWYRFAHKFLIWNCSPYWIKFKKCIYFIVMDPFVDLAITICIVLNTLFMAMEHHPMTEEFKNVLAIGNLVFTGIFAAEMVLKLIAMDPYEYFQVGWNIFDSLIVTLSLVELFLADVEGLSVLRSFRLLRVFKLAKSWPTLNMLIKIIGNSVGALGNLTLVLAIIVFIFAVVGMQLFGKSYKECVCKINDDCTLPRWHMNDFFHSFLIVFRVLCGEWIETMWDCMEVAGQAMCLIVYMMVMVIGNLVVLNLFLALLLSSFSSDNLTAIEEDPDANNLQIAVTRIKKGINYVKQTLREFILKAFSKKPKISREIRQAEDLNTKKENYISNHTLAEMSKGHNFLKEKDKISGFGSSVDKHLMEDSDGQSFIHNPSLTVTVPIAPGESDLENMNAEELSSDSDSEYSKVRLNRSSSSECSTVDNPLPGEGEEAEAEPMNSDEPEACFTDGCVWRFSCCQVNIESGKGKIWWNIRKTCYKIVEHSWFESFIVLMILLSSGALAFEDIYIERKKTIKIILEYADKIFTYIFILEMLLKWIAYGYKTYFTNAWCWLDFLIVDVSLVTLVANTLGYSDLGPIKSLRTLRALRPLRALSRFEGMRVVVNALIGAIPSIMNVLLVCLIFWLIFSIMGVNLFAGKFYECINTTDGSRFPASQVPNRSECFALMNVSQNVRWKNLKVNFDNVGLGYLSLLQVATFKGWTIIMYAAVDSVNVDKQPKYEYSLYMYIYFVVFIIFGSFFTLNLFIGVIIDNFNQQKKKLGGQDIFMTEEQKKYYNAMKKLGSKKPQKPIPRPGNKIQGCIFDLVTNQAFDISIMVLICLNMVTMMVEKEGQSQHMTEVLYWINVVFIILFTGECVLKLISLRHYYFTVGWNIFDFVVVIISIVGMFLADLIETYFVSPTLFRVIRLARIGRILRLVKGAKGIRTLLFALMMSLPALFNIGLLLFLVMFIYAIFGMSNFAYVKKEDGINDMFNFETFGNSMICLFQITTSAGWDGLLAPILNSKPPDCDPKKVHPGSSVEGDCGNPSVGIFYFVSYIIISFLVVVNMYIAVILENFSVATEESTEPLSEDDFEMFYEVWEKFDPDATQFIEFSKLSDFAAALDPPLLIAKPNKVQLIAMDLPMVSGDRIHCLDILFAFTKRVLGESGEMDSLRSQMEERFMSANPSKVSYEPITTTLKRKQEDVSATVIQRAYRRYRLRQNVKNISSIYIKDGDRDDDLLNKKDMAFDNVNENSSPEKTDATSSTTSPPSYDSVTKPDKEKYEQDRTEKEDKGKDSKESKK

SMILES	IC50 [µM]
NC(=O)c1cccc(-c2ccc(Oc3ccc(F)cc3)c(C(F)(F)F)c2)n1 [compound 90, 6-(4-(4-fluorophenoxy)-3-(trifluoromethyl)phenyl)picolin-amide]	> 20
CN(Cc1cc(-c2cccc(C(N)=O)n2)ccc1Oc1ccc(F)cc1)c1ccccc1 [compound 102, 6-(4-(4-fluorophenoxy)-3-((methyl(phenyl)amino)methyl)phenyl)picolinamide]	1.3 ± 0.126
CNC(=O)c1cc(C(F)(F)F)ccc1Oc1ccc(-c2cccc(C(N)=O)n2)cc1 [compound 163, 6-(4-(2-(methylcarbamoyl)-4-(trifluoromethyl)phenoxy)phenyl) picolinamide]	> 20
CCN(CC)S(=O)(=O)c1cc(C(F)(F)F)ccc1Oc1ccc(-c2cccc(C(N)=O)n2)cc1 [compound 109, 6-(4-(2-(N,N-diethylsulfamoyl)-4-(trifluoromethyl)phenoxy)phenyl)picolinamide]	1.3 ± 0.056
CN(Cc1cc(-c2cccc(C(N)=O)n2)ccc1Oc1ccc(F)cc1)c1ccc(C(=O)O)cc1 [compound 93, 4-((5-(6-carbamoylpyridin-2-yl)-2-(4-fluorophenoxy)benzyl)-(methyl)amino)benzoic acid]	> 20
CN1CCN(C(=O)c2cc(C(F)(F)F)ccc2Oc2ccc(-c3cccc(C(N)=O)n3)cc2)CC1 [compound 162, 6-(4-(2-(4-methylpiperazine-1-carbonyl)-4-(trifluoromethyl)phenoxy)phenyl)picolinamide]	7.95 ± 0.402
NC(=O)c1cccc(-c2ccc(Oc3ccc(C(F)(F)F)cc3C(O)CN3CCNC(=O)C3)cc2)n1 (stereo not shown) [compound 79, 6-(4-(2-(1-hydroxy-2-(3-oxopiperazin-1-yl)ethyl)-4-(trifluoromethyl)phenoxy)phenyl) picolinamide]	> 20
NC(=O)c1cccc(-c2ccc(Oc3ccc(C(F)(F)F)cc3CNCCO)cc2)n1 [compound 40, 6-(4-(2-(((2-hydroxyethyl)-amino)methyl)-4-(trifluoro-methyl)phenoxy)phenyl)picolin-amide]	1.68 ± 0.177
CN(CCO)C(=O)c1cc(C(F)(F)F)ccc1Oc1ccc(-c2cccc(C(N)=O)n2)cc1 [compound 161, 6-(4-(2-((2-hydroxyethyl)-(methyl)carbamoyl)-4-(trifluoromethyl)phenoxy)phenyl) picolinamide]	> 20
NC(=O)c1cccc(-c2ccc(Oc3ccc(C(F)(F)F)cc3CN[C@H]3CCNC3=O)cc2)n1 [compound 46, (S)-6-(4-(2-(((2-oxopyrrolidin-3-yl)amino)methyl)-4-(trifluoro-methyl)phenoxy)phenyl)picolin-amide]	2.58 ± 0.692
NC(=O)c1cccc(-c2ccc(Oc3ccc(F)cc3)c(CN3CCCC3)c2)n1 [compound 97, 6-(4-(4-fluorophenoxy)-3-(pyrrolidin-1-ylmethyl)phenyl)-picolinamide]	4.24 ± 0.919
CN(c1ccccc1)c1cc(-c2cccc(C(N)=O)n2)ccc1Oc1ccc(F)cc1 [compound 92, 6-(4-(4-fluorophenoxy)-3-(methyl(phenyl)amino)phenyl) picolinamide]	> 20
NC(=O)c1cccc(-c2ccc(Oc3ccc(C(F)(F)F)cc3C(C(=O)N3CCCC3)N3CCCC3)cc2)n1 (stereo not shown) [compound 111, 6-(4-(2-(2-oxo-1,2-di(pyrrolidin-1-yl)ethyl)-4-(trifluoromethyl)phenoxy)phenyl) picolinamide]	6.59 ± 0.321
NC(=O)c1cccc(-c2ccc(Oc3ccc(C(F)(F)F)cc3C(C(N)=O)N3CCCCC3)cc2)n1 (stereo not shown) [compound 82, 6-(4-(2-(2-amino-2-oxo-1-(piperidin-1-yl)ethyl)-4-(trifluoromethyl)phenoxy)phenyl) picolinamide]	2.72 ± 0.264
NC(=O)c1cccc(-c2ccc(Oc3ccc(C(F)(F)F)cc3CNc3nccs3)cc2)n1 [compound 114, 6-(4-(2-((thiazol-2-ylamino)methyl)-4-(trifluoromethyl)phenoxy)phenyl) picolinamide]	2.01 ± 0.456
NC(=O)c1cccc(-c2ccc(Oc3ccc(F)cc3)c(COc3ccc(F)cc3)c2)n1 [compound 104, 6-(4-(4-fluorophenoxy)-3-((4-fluorophenoxy)methyl)phenyl) picolinamide]	> 20

The remaining compounds from weak to strong by IC50, led by results:

IC50 [µM]	SMILES
1.29 ± 0.182	OC[C@@H](O)c1cccc(-c2ccc(Oc3ccc(F)cc3C(O)C(F)(F)F)cc2)n1 (stereo partly drawn) [compound 156, (1S)-1-(6-(4-(4-fluoro-2-(2,2,2-trifluoro-1-hydroxyethyl)-phenoxy)phenyl)pyridin-2-yl)ethane-1,2-diol]
0.949 ± 0.168	CC(C)(C)OC(=O)NC1CCN(Cc2cc(C(F)(F)F)ccc2Oc2ccc(-c3cccc(C(N)=O)n3)cc2)C1 (stereo not shown) [compound 47, tert-butyl (1-(2-(4-(6-carbamoylpyridin-2-yl)phenoxy)-5-(trifluoromethyl)-benzyl)pyrrolidin-3-yl)carbamate]
0.862 ± 0.012	NCc1cc(C(F)(F)F)ccc1Oc1ccc(-c2cccc(C(N)=O)n2)cc1 [compound 65, 6-(4-(2-(aminomethyl)-4-(trifluoromethyl)phenoxy)phenyl) picolinamide]
0.768 ± 0.051	NC(=O)c1cccc(-c2ccc(Oc3ccc(C(F)(F)F)cc3CN3CCC3)cc2)n1 [compound 50, 6-(4-(2-(azetidin-1-ylmethyl)-4-(trifluoromethyl)phenoxy)phenyl) picolinamide]
0.636 ± 0.065	OC[C@@H](O)c1ccnc(-c2ccc(Oc3ccc(C(F)(F)F)cc3CN3CCCC3)cc2)n1 [compound 116, (S)-1-(2-(4-(2-(pyrrolidin-1-ylmethyl)-4-(trifluoromethyl)phenoxy)phenyl)pyrimidin-4-yl)ethane-1,2-diol]
0.577 ± 0.056	NC(=O)c1cccc(-c2ccc(Oc3ccc(F)cc3)cc2C(F)(F)F)n1 [compound 91, 6-(4-(4-fluorophenoxy)-2-(trifluoromethyl)phenyl)picolin-amide]
0.49 ± 0.041	NC(=O)c1cccc(-c2ccc(Oc3ccc(F)cc3)cc2Cl)n1 [compound 86, 6-(2-chloro-4-(4-fluorophenoxy)-phenyl)picolinamide]
0.455 ± 0.067	OC[C@H](O)c1ccnc(-c2ccc(Oc3ccc(C(F)(F)F)cc3CN3CCCC3)cc2)n1 [compound 115, (R)-1-(2-(4-(2-(pyrrolidin-1-ylmethyl)-4-(trifluoromethyl)phenoxy)phenyl)pyrimidin-4-yl)ethane-1,2-diol]
0.337 ± 0.056	NC(=O)c1cccc(-c2ccc(Oc3ccc(C(F)(F)F)cc3C(O)C[N+](=O)[O-])cc2)n1 (stereo not shown) [compound 63, 6-(4-(2-(1-hydroxy-2-nitroethyl)-4-(trifluoromethyl)phenoxy)-phenyl)picolinamide]
0.276 ± 0.063	NC(=O)c1cccc(-c2ccc(Oc3ccc(F)cc3)c(-c3ccc(Cl)cc3)c2)n1 [compound 100, 6-(4′-chloro-6-(4-fluorophenoxy)-[1,1′-biphenyl]-3-yl)picolinamide]
0.179 ± 0.034	CN(C)Cc1cc(C(F)(F)F)ccc1Oc1ccc(-c2cccc(C(N)=O)n2)cc1 [compound 39, 6-(4-(2-((dimethylamino)methyl)-4-(trifluoromethyl)phenoxy)-phenyl)picolinamide]
0.128 ± 0.03	NC(=O)c1cccc(-c2ccc(Oc3ccc(F)cc3)c(Cl)c2)n1 [compound 87, 6-(3-chloro-4-(4-fluorophenoxy)-phenyl)picolinamide]
0.117 ± 0.036	NC(=O)c1cccc(-c2ccc(Oc3ccc(C(F)(F)F)cc3-c3cccnc3)cc2)n1 [compound 29, 6-(4-(2-(pyridin-3-yl)-4-(trifluoromethyl)phenoxy)phenyl) picolinamide]
0.104 ± 0.02	N#Cc1ccc(Oc2ccc(-c3cccc(C(N)=O)n3)cc2)c(-c2cccnc2)c1 [compound 16, 6-(4-(4-cyano-2-(pyridin-3-yl)phenoxy)phenyl)picolinamide]
0.054 ± 0.005	N#Cc1ccc(Oc2ccc(-c3cccc(C(N)=O)n3)cc2)cc1-c1ccncc1 [compound 26, 6-(4-(4-cyano-3-(pyridin-4-yl)phenoxy)phenyl)picolinamide]
